The values that follow are results of earlier work, collected in US8609722B2, “Anesthetic composition for topical administration comprising lidocaine, prilocaine and tetracaine” (priority 2003, dated 2013).

The test system of data set [1] is erythrocyte heme protein. The conditions noted are these: the very young may be more susceptible.

Structures are written as SMILES. Counter-ions that a name gives are not always drawn.

Turning to `CCCNC(C)C(=O)Nc1ccccc1C` (centres unmarked) [prilocaine hydrochloride], the solubility in water result was “readily soluble in water”. In addition, the “dose above which symptoms of methemoglobinaemia usually occur” value in data set [1] was “exceed 8 mg per kg body-weight”.
